Key:
KCNQ4 [1] = assay: shRNA- and CRISPR-mediated knockdown of KCNQ4 expression in HEK293 cells (FIG. 3, lanes); assay type: cell-based, human; conditions: HEK293 cells with KCNQ4 construct, N=4 biological replicates
Experimental: The following shRNA constructs and KCNQ4 constructs were tested in HEK293 cells: sh395, sh909, sh1095, sh1531, sh1593, sh1677, sh1721, and sh1827 (see FIG. 3). The following constructs were tested in HEK293 cells as a positive control (e.g., as a reference for maximum knockdown of KCNQ4 that can be achieved): SaCas9+sgRNA 447Fw+KCNQ4 (lane 11). A shVEGF construct (targeting VEGF) and KCNQ4 construct were tested in HEK293 cells as a negative control (lane 10). In addition, only the KCNQ4 construct was tested in HEK293 cells as a negative control (lane 12). […] The level of expression of KCNQ4 was most reduced by sh1827 and sgRNA 447Fw in this example. FIGS. 11 and 12 each show efficacy of knockdown with each of the shRNA constructs as well as an empty shRNA construct (“Mock”). Levels of KCNQ4 were measured using quantitative PCR, normalized to GAPDH. Two independent biological replicates were performed (FIGS. 11 and 12), each of which had three replicates per condition.

KCNQ4 [2] = assay: SaCas9/gRNA knockdown of KCNQ4 in HEK cells, western blot, TIDE, immunofluorescence (FIG. 10); assay type: cell-based, human; conditions: western blot and immunofluorescence analyses (data not shown)
Source text: The present example describes a targeting strategy that knocks out both KCNQ4 alleles and replaces wild-type KCNQ4 with a codon-optimized KCNQ4 using a SaCas9/gRNA strategy FIG. (FIG. 9). The present example also describes an in vitro analysis of KCNQ4 knockdown in HEK cells via Western blot and quantitative PCR.
The following guides were transfected with SaCas9 and KCNQ4 DNA to determine knockdown efficiency: sg233Fw (lane 2), sg386Fw (lane 3), sg408Rev (lane 4), sg447Fw(lane 5), sg482Fw (lane 6), and sg490Fw (lane 7). An untransfected control (lane 8), sgVEGF (targeting VEGF) (lane 9), and Beta-Actin expression (lanes 2-9) were used as controls. […] To expand and/or improve upon results obtained thus far, similar experiments can be performed in 3T3 cells using deadCas9 and mouse sgRNA sequences.

| Substance | level of expression of KCNQ4 (KCNQ4 [1]) | inhibition of KCNQ4 expression relative to other sgRNAs (KCNQ4 [2]) |
| --- | --- | --- |
| sgRNA 447Fw: gRNA targeting KCNQ4, SEQ ID NO: 45, target TTTCGGCTTGGAGTACATCGT; used with SaCas9 (expressed or natural sequence) | most reduced | – |
| sgRNA 408Rev: gRNA targeting KCNQ4, SEQ ID NO: 43, target AAGCCGAAAACCACGATCATC (expressed or natural sequence) | – | inhibited KNCQ4 expression more than other sgRNAs |
| sgRNA 386Fw: gRNA targeting KCNQ4, SEQ ID NO: 42, target AGGAGCACCAGGAACTTGCCA (expressed or natural sequence) | – | inhibited KNCQ4 expression more than other sgRNAs |
| sh1827: shRNA construct targeting KCNQ4; by order probably SEQ ID NO: 55 (GGTGGATGAAATCAGCATGATCGAAATCATGCTGATTTCATCCACC) | most reduced | – |
